For five compounds, Kd and stoichiometry N results are on record in publication PMC4410016 (Cell reports, 2015).

Experiment [1] concerns the target MtrF (Neisseria gonorrhoeae, UniProt Q9RNX2, W420A). The experiment in a line: biochemical.
In experiment [2] the target is MtrF (Neisseria gonorrhoeae, UniProt Q9RNX2). The experiment in a line: isothermal titration calorimetry. The format is binding.
Experiment [3] concerns the target Neisseria gonorrhoeae MtrF transporter (Neisseria gonorrhoeae). The experiment in a line: SEC.

For the compound `Nc1ccc(C(=O)O)cc1` [p-aminobenzoic acid], the figures for the Kd in experiment [1] and in experiment [2] were 41.1 ± 11.5 µM and 0.54 ± 0.02 µM, respectively.

Consider `Nc1ccc(S(=O)(=O)Nc2ncccn2)cc1` [sulfadiazine], for which the Kd came out at 106 ± 25.6 µM in experiment [1] and 12.7 ± 0.62 µM in experiment [2].

`Cc1cc(C)nc(NS(=O)(=O)c2ccc(N)cc2)n1` [sulfamethazine]: the Kd stood at 10.8 ± 1.17 µM in experiment [1] and 0.33 ± 0.02 µM in experiment [2].

Regarding `Nc1ccc(S(=O)(=O)Nc2nccs2)cc1` [sulfathiazole], the Kd in experiment [1] came to 50.8 ± 8.9 µM; in experiment [2] it was 1.52 ± 0.07 µM.

With “Neisseria gonorrhoeae MtrF transporter (natural protein)”, the stoichiometry N in experiment [3] was 2.
